Legend:
p7NC = target: T1, p7NC (Human immunodeficiency virus type 1 group M subtype B, UniProt P05888); test: HPLC analysis of reaction products of purified p7NC with reagent; type: biochemical, HIV-1
T1 construct: The NC protein of HIV-1 (MN) p7NC was expressed in E. coli; made in house; host or cells: E. coli (vector pMAL-c)
How it was run: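 Purified zinc-reconstituted p7NC (63 μM) incubated 10 min with reagent at 6:1 reagent:protein; products resolved by reversed-phase C-18 HPLC at pH 2 (0.05% TFA) with acetonitrile gradient. Rated fast (full conversion), slow (>10% native remaining) or very slow (>50% native remaining).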

HIV-1MN = test: Effect of NOBA on intact HIV-1MN (p24, zinc, TCIU of pelleted virus); type: cell-based; details: for Zn: pelleted virus

NC(=O)c1cccc(N=O)c1 [NOBA, 3-nitrosobenzamide]
reaction with purified p7NC (HPLC), in words (p7NC): oxidizes p7NC to products eluting as peaks A and B | virus inactivated (HIV-1MN; 0.03 mM, ratio of NOBA to zinc fingers 50:1): greater than 99% | tissue culture infectious unit (TCIU/ml) (HIV-1MN; NOBA 0.03 mM, 2 hours): 1.0 × 10^3 TCIU/ml | Zn (HIV-1MN; NOBA 0.03 mM, 2 hours): 0.21 µg/mL | Zn (HIV-1MN; NOBA 0.3 mM, 2 hours): 0.21 µg/mL | Zn (HIV-1MN; NOBA 3.0 mM, 2 hours): 0.11 µg/mL
